From ChEMBL document CHEMBL1127178, “Nucleosides and nucleotides. 117. A transition-state analogue in purine nucleotide biosynthesis: the design and synthesis of an imidazo[4,5-c]azepine nucleoside” (Bioorg Med Chem Lett, 1993) come the findings set out here.

In brackets after ≈: the same amount, converted by molar mass.

The assay relates to L1210. Kind of assay: Cytotoxicity of compound was determined in terms of effective concentration required against murine L1210 cells. The format is functional, cell-based. The conditions noted are these: Mus musculus.

For the compound `O=C1NC(O)C=Cc2c1ncn2C1O[C@H](CO)C(O)[C@H]1O` (single isomer, unassigned), the EC50 – broadly, the concentration that produces a half-maximal response – came to 5 µg/mL (≈ 16.8 µM).
